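Protocol summary: plate cells (96-well), add compound at 5 concentrations, incubate 48 h, interpolate endpoints linearly. GI50 = concentration required for 50% inhibition of growth. The concentration for full growth arrest is given as TGI.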
Assays:
Assay in all cases: NCI-60 cell line screen, 48 h
[1] = tested on: KM12 colon
[2] = tested on: NCI/ADR-RES ovarian
[3] = tested on: UACC-257 melanoma
[4] = tested on: T-47D breast
[5] = tested on: SW-620 colon
[6] = tested on: RXF 393 renal
[7] = tested on: RPMI-8226 leukemia
[8] = tested on: PC-3 prostate
[9] = tested on: HOP-92 NSCLC
[10] = tested on: OVCAR-4 ovarian
[11] = tested on: A549 NSCLC
[12] = tested on: NCI-H23 lung
[13] = tested on: MDA-MB-435
[14] = tested on: SK-OV-3 ovarian
[15] = tested on: SNB-75 CNS
[16] = tested on: COLO 205 colon
[17] = tested on: SF-295 CNS
[18] = tested on: OVCAR-3 ovarian
[19] = tested on: OVCAR-8 ovarian
[20] = tested on: UO-31 renal
[21] = tested on: NCI-H226 lung
[22] = tested on: LOX IMVI melanoma
[23] = tested on: SK-MEL-2 melanoma
[24] = tested on: DU-145 prostate
[25] = tested on: BT-549 breast
[26] = tested on: K-562 leukemia
[27] = tested on: ACHN renal
[28] = tested on: A498 renal
[29] = tested on: HT29 colon
[30] = tested on: NCI-H522 lung
[31] = tested on: EKVX NSCLC
[32] = tested on: TK-10 renal
[33] = tested on: CAKI-1 renal
[34] = tested on: SF-539 CNS
[35] = tested on: MCF7 breast
[36] = tested on: SK-MEL-28 melanoma
[37] = tested on: OVCAR-5 ovarian
[38] = tested on: 786-0 renal
[39] = tested on: MDA-MB-231 breast
[40] = tested on: HCT-15 colon
[41] = tested on: SK-MEL-5 melanoma
[42] = tested on: U251 CNS
[43] = tested on: NCI-H460 lung
[44] = tested on: MOLT-4 leukemia
[45] = tested on: SNB-19 CNS
[46] = tested on: SN12C renal
[47] = tested on: SR leukemia
[48] = tested on: CCRF-CEM leukemia
[49] = tested on: UACC-62 melanoma
[50] = tested on: SF-268 CNS
[51] = tested on: HS 578T breast
[52] = tested on: MALME-3M melanoma
[53] = tested on: HL-60(TB) leukemia
[54] = tested on: HOP-62 NSCLC
[55] = tested on: HCT-116 colon
[56] = tested on: M14 melanoma
[57] = tested on: IGROV1 ovarian
[58] = tested on: HCC-2998 colon

O=C(NNc1nc2cc(F)ccc2n2c(CN3CC4(COC4)C3)ccc12)c1cnccn1 gave a GI50 [1] of 0.579 µM, a TGI [1] greater than 64.2 µM and a GI50 [2] of 0.386 µM. The TGI [2] was 9.97 µM, the GI50 [3] was 1.72 µM and the TGI [3] was 8.07 µM. It also gave a GI50 [4] of 0.558 µM, a TGI [4] of 22.3 µM and a GI50 [5] of 0.62 µM. For the same molecule, the TGI [5] was greater than 56.3 µM, the GI50 [6] was 2.29 µM and the TGI [6] was 13.7 µM. It also gave a GI50 [7] of 0.689 µM, a TGI [7] of 28.1 µM and a GI50 [8] of 0.719 µM. It also gave a TGI [8] of 31.4 µM, a GI50 [9] of 0.983 µM and a TGI [9] of 23.3 µM. For the same molecule, the GI50 [10] was 0.49 µM, the TGI [10] was greater than 39.1 µM and the GI50 [11] was 0.611 µM. The TGI [11] was 32.7 µM, the GI50 [12] was 1.78 µM and the TGI [12] was 41.8 µM. It also gave a GI50 [13] of 1.3 µM, a TGI [13] greater than 47.5 µM and a GI50 [14] of 0.548 µM. For the same molecule, the TGI [14] was 9.88 µM, the GI50 [15] was 0.756 µM and the TGI [15] was 11 µM. For the same molecule, the GI50 [16] was 0.401 µM, the TGI [16] was 16.3 µM and the GI50 [17] was 0.319 µM. For the same molecule, the TGI [17] was 12.2 µM, the GI50 [18] was 0.65 µM and the TGI [18] was 22.7 µM. The GI50 [19] was 0.404 µM, the TGI [19] was 16.3 µM and the GI50 [20] was 0.114 µM. It also gave a TGI [20] of 5.71 µM, a GI50 [21] of 1.05 µM and a TGI [21] of 10.8 µM. It also gave a GI50 [22] of 0.557 µM, a TGI [22] of 9.72 µM and a GI50 [23] of 2.19 µM. For the same molecule, the TGI [23] was 14.7 µM, the GI50 [24] was 1.18 µM and the TGI [24] was greater than 82.4 µM. It also gave a GI50 [25] of 0.907 µM, a TGI [25] of 9.22 µM and a GI50 [26] of 0.502 µM. The TGI [26] was greater than 100 µM, the GI50 [27] was 0.233 µM and the TGI [27] was 11.7 µM. For the same molecule, the GI50 [28] was 16.7 µM, the TGI [28] was 34 µM and the GI50 [29] was 0.499 µM. For the same molecule, the TGI [29] was 16.8 µM, the GI50 [30] was 0.497 µM and the TGI [30] was 5.5 µM. For the same molecule, the GI50 [31] was 0.438 µM, the TGI [31] was 30 µM and the GI50 [32] was 0.263 µM. For the same molecule, the TGI [32] was 23.2 µM, the GI50 [33] was 0.33 µM and the TGI [33] was 13.2 µM. The GI50 [34] was 0.675 µM, the TGI [34] was 8.97 µM and the GI50 [35] was 0.596 µM. It also gave a TGI [35] of 9.81 µM, a GI50 [36] of 0.861 µM and a TGI [36] of 25.1 µM. The GI50 [37] was 1.16 µM, the TGI [37] was 34.3 µM and the GI50 [38] was 0.458 µM. It also gave a TGI [38] of 11.2 µM, a GI50 [39] of 0.696 µM and a TGI [39] of 19.5 µM. The GI50 [40] was 0.188 µM, the TGI [40] was 26.3 µM and the GI50 [41] was 0.673 µM. It also gave a TGI [41] of 5.33 µM, a GI50 [42] of 0.395 µM and a TGI [42] greater than 53.1 µM. The GI50 [43] was 0.259 µM, the TGI [43] was 11.6 µM and the GI50 [44] was 0.443 µM. The TGI [44] was greater than 75.6 µM, the GI50 [45] was 0.854 µM and the TGI [45] was greater than 100 µM. The GI50 [46] was 0.952 µM, the TGI [46] was 33.5 µM and the GI50 [47] was 0.409 µM. It also gave a TGI [47] greater than 100 µM, a GI50 [48] of 0.281 µM and a TGI [48] greater than 70.4 µM. The GI50 [49] was 0.406 µM, the TGI [49] was 1.96 µM and the GI50 [50] was 0.616 µM. It also gave a TGI [50] greater than 100 µM, a GI50 [51] of 3.04 µM and a TGI [51] greater than 95.2 µM. The GI50 [52] was 1.6 µM, the TGI [52] was 11.9 µM and the GI50 [53] was 0.469 µM. For the same molecule, the TGI [53] was 12.9 µM, the GI50 [54] was 0.442 µM and the TGI [54] was 22.1 µM. For the same molecule, the GI50 [55] was 0.373 µM, the TGI [55] was 13.3 µM and the GI50 [56] was 0.451 µM. It also gave a TGI [56] of 3.53 µM, a GI50 [57] of 0.717 µM and a TGI [57] of 18.9 µM. It also gave a GI50 [58] of 0.709 µM and a TGI [58] greater than 45.9 µM.

From PubChem BioAssay (NCI)
